Results taken from patent publication US20240116985A1, “STAPLED PEPTIDES AND METHODS THEREOF” (priority 2020, published 2024).

Legend:
[1] = biological target: T1, beta-catenin/TCF4 engagement (Homo sapiens, UniProt P35222); test: Nano-BRET target engagement assay (B-cat-Halo & TCF4-Luc in HEK293 cells); assay type: cell-based; conditions: absolute IC50; read-out: NanoBRET Abs IC50
T1 construct: expressed in transfected cells; host or cells: HEK293
T1 sequence (P35222 1-781): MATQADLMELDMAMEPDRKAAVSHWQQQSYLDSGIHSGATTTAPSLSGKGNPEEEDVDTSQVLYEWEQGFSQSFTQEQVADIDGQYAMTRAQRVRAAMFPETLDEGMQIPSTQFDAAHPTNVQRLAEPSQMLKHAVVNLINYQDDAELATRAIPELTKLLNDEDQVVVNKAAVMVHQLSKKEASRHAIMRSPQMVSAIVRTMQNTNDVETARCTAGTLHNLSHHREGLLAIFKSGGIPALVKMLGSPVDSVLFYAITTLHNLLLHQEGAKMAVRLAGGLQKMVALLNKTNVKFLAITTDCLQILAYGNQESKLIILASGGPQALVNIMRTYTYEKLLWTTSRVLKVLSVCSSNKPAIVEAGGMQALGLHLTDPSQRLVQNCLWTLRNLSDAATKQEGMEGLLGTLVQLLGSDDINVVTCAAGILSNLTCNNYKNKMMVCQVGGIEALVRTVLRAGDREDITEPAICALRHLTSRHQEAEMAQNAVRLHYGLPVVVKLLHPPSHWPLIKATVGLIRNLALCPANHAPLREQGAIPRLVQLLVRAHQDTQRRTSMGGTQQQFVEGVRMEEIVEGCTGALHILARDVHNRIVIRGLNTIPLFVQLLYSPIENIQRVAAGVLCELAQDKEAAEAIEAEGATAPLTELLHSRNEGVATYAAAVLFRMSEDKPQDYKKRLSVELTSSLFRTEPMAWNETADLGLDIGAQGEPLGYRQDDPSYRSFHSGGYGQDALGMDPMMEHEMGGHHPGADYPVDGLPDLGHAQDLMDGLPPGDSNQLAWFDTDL

[2] = biological target: T2, full-length beta-Catenin (Uniprot ID P35222) (Homo sapiens, UniProt P35222); test: Fluorescence polarization IC50 (beta-catenin / 5FAM-TCF4 10-53 competition); assay type: binding; conditions: fluorescence polarization; read-out: beta-Catenin FP IC50
T2 construct: 10 nM full-length beta-Catenin (Uniprot ID P35222)
T2 sequence (P35222 1-781): T1 sequence (P35222 1-781)

IC50 [1] [nM]	IC50 [2] [nM]	Structure (SMILES)
17500	7	CC(=O)N1CCC[C@]12CC=CCCCC1(CCCC=CCCCOC(=O)N3CC[C@@](C(=O)N[C@@H](Cc4ccsc4)C(=O)N[C@@H](Cc4csc5ccccc45)C(=O)N[C@@H](CCC(=O)N4CCC(N5CCN(C)CC5)CC4)C(N)=O)(C3)NC(=O)[C@H](CC(C)C)NC(=O)[C@H](Cc3ccccc3)NC(=O)[C@H](C)NC(=O)[C@H](C)NC(=O)[C@H](CN(CC(=O)O)CC(F)(F)F)NC(=O)[C@H](CC(=O)O)NC1=O)NC(=O)[C@H](CC(C)(C)C)NC(=O)[C@H](CC(=O)O)NC2=O (stereo partly drawn) [I-1801, Ac-PL3-Asp-Npg-B5-Asp-TfeGA-Ala-Ala-Phe-Leu-PyrS2-3Thi-BztA-[4MePpzPip]GlnR-NH2]
25200	11	CC(=O)N1CCC[C@]12CC=CCCCC1(CCCC=CCCCOC(=O)N3CC[C@@](C(=O)N[C@@H](Cc4ccsc4)C(=O)N[C@@H](Cc4csc5ccccc45)C(=O)N[C@@H](CCC(=O)N4CCC(N5CCN(C)CC5)CC4)C(N)=O)(C3)NC(=O)[C@H](CC(C)C)NC(=O)[C@H](Cc3ccccc3)NC(=O)[C@H](C)NC(=O)[C@H](C)NC(=O)[C@H](CN(CC(=O)O)CC(F)(F)F)NC(=O)[C@H](CC(=O)O)NC1=O)NC(=O)[C@H](CC(C)(C)C)NC(=O)[C@H](CC(=O)O)NC2=O (stereo partly drawn) [I-1802, Ac-PL3-Asp-Npg-B5-Asp-TfeGA-Ala-Ala-Phe-Leu-PyrS2-3Thi-BztA-[4MePpzPip]GlnR-NH2]
7400	20	CC(=O)N1CCC[C@]12CC=CCCCC1(CCCC=CCCCOC(=O)N3CC[C@@](C(=O)N[C@@H](Cc4ccsc4)C(=O)N[C@@H](Cc4csc5ccccc45)C(=O)N[C@@H](CCC(=O)N4CCN(CC(F)(F)F)CC4)C(N)=O)(C3)NC(=O)[C@H](CC(C)C)NC(=O)[C@H](Cc3ccccc3)NC(=O)[C@H](C)NC(=O)[C@H](C)NC(=O)[C@H](CN(CC(=O)O)CC(F)(F)F)NC(=O)[C@H](CC(=O)O)NC1=O)NC(=O)[C@H](CC(C)(C)C)NC(=O)[C@H](CC(=O)O)NC2=O (stereo partly drawn) [I-1803, Ac-PL3-Asp-Npg-B5-Asp-TfeGA-Ala-Ala-Phe-Leu-PyrS2-3Thi-BztA-[TfePpz]GlnR-NH2]
14000	90	CC(=O)N1CCC[C@]12CCCCCCC1(CCCCCCCCOC(=O)N3CC[C@@](C(=O)N[C@@H](Cc4ccsc4)C(=O)N[C@@H](Cc4csc5ccccc45)C(=O)N[C@@H](CCC(N)=O)C(N)=O)(C3)NC(=O)[C@H](CC(C)C)NC(=O)[C@H](Cc3ccccc3)NC(=O)[C@H](C)NC(=O)[C@H](C)NC(=O)[C@H](CC(=O)O)NC(=O)[C@H](CC(=O)O)NC1=O)NC(=O)[C@H](CC(C)(C)C)NC(=O)[C@H](CC(=O)O)NC2=O (stereo partly drawn) [I-1808, Ac-PL3-Asp-Npg-B5-Asp-Asp-Ala-Ala-Phe-Leu-PyrS2-3Thi-BztA-Gln-NH2]
> 20000	26	CC(=O)N1CCC[C@]12CC=CCCCC1(CCCC=CCCOC(=O)N3CC[C@@](C(=O)N[C@@H](Cc4ccsc4)C(=O)N[C@@H](Cc4csc5ccccc45)C(=O)N[C@@H](CCC(N)=O)C(N)=O)(C3)NC(=O)[C@H](CC(N)=O)NC(=O)[C@H](Cc3ccccc3)NC(=O)[C@H](C)NC(=O)[C@H](C)NC(=O)[C@H](CC(=O)O)NC(=O)[C@H](CC(=O)O)NC1=O)NC(=O)[C@H](CC(C)(C)C)NC(=O)[C@H](CC(=O)O)NC2=O (stereo partly drawn) [I-1813, Ac-PL3-Asp-Npg-B5-Asp-Asp-Ala-Ala-Phe-Asn-PyrS1-3Thi-BztA-Gln-NH2]
> 20000	46	CC(=O)N1CCC[C@]12CC=CCCCC1(CCCC=CCCOC(=O)N3CC[C@@](C(=O)N[C@@H](Cc4ccsc4)C(=O)N[C@@H](Cc4csc5ccccc45)C(=O)N[C@@H](CCC(N)=O)C(N)=O)(C3)NC(=O)[C@H](CC(C)C)NC(=O)[C@H](Cc3ccccc3)NC(=O)[C@H](C)NC(=O)[C@H](C)NC(=O)[C@H](CC(=O)O)NC(=O)[C@H](CC(=O)O)NC1=O)NC(=O)[C@H](CC(C)(C)C)NC(=O)[C@H](CC(=O)O)NC2=O (stereo partly drawn) [I-1815, Ac-PL3-Asp-Npg-B5-Asp-Asp-Ala-Ala-Phe-Leu-PyrS1-3Thi-BztA-Gln-NH2]
> 20000	236	CC(=O)N1CCC[C@]12CC=CCCCC1(CCCC=CCOC(=O)N3CC[C@@](C(=O)N[C@@H](Cc4ccsc4)C(=O)N[C@@H](Cc4csc5ccccc45)C(=O)N[C@@H](CCC(N)=O)C(N)=O)(C3)NC(=O)[C@H](CC(C)C)NC(=O)[C@H](Cc3ccccc3)NC(=O)[C@H](C)NC(=O)[C@H](C)NC(=O)[C@H](CC(=O)O)NC(=O)[C@H](CC(=O)O)NC1=O)NC(=O)[C@H](CC(C)(C)C)NC(=O)[C@H](CC(=O)O)NC2=O (stereo partly drawn) [I-1818, Ac-PL3-Asp-Npg-B5-Asp-Asp-Ala-Ala-Phe-Leu-PyrS-3Thi-BztA-Gln-NH2]
> 20000	67	CC(=O)N1CCC[C@]12CCCCCCC1(CCCCCCCOC(=O)N3CC[C@@](C(=O)N[C@@H](Cc4ccsc4)C(=O)N[C@@H](Cc4csc5ccccc45)C(=O)N[C@@H](CCC(N)=O)C(N)=O)(C3)NC(=O)[C@H](CC(N)=O)NC(=O)[C@H](Cc3ccccc3)NC(=O)[C@H](C)NC(=O)[C@H](C)NC(=O)[C@H](CC(=O)O)NC(=O)[C@H](CC(=O)O)NC1=O)NC(=O)[C@H](CC(C)(C)C)NC(=O)[C@H](CC(=O)O)NC2=O (stereo partly drawn) [I-1821, Ac-PL3-Asp-Npg-B5-Asp-Asp-Ala-Ala-Phe-Asn-PyrS1-3Thi-BztA-Gln-NH2]
> 20000	60	CC(=O)N1CCC[C@]12CCCCCCC1(CCCCCCCOC(=O)N3CC[C@@](C(=O)N[C@@H](Cc4ccsc4)C(=O)N[C@@H](Cc4csc5ccccc45)C(=O)N[C@@H](CCC(N)=O)C(N)=O)(C3)NC(=O)[C@H](CC(C)C)NC(=O)[C@H](Cc3ccccc3)NC(=O)[C@H](C)NC(=O)[C@H](C)NC(=O)[C@H](CC(=O)O)NC(=O)[C@H](CC(=O)O)NC1=O)NC(=O)[C@H](CC(C)(C)C)NC(=O)[C@H](CC(=O)O)NC2=O (stereo partly drawn) [I-1822, Ac-PL3-Asp-Npg-B5-Asp-Asp-Ala-Ala-Phe-Leu-PyrS1-3Thi-BztA-Gln-NH2]
> 20000	41	CC(=O)N1CCC[C@]12CCCCCCC1(CCCCCCOC(=O)N3CC[C@@](C(=O)N[C@@H](Cc4ccsc4)C(=O)N[C@@H](Cc4csc5ccccc45)C(=O)N[C@@H](CCC(N)=O)C(N)=O)(C3)NC(=O)[C@H](CC(N)=O)NC(=O)[C@H](Cc3ccccc3)NC(=O)[C@H](C)NC(=O)[C@H](C)NC(=O)[C@H](CC(=O)O)NC(=O)[C@H](CC(=O)O)NC1=O)NC(=O)[C@H](CC(C)(C)C)NC(=O)[C@H](CC(=O)O)NC2=O (stereo partly drawn) [I-1823, Ac-PL3-Asp-Npg-B5-Asp-Asp-Ala-Ala-Phe-Asn-PyrS-3Thi-BztA-Gln-NH2]
> 20000	101	CC(=O)N1CCC[C@]12CCCCCCC1(CCCCCCOC(=O)N3CC[C@@](C(=O)N[C@@H](Cc4ccsc4)C(=O)N[C@@H](Cc4csc5ccccc45)C(=O)N[C@@H](CCC(N)=O)C(N)=O)(C3)NC(=O)[C@H](CC(C)C)NC(=O)[C@H](Cc3ccccc3)NC(=O)[C@H](C)NC(=O)[C@H](C)NC(=O)[C@H](CC(=O)O)NC(=O)[C@H](CC(=O)O)NC1=O)NC(=O)[C@H](CC(C)(C)C)NC(=O)[C@H](CC(=O)O)NC2=O (stereo partly drawn) [I-1824, Ac-PL3-Asp-Npg-B5-Asp-Asp-Ala-Ala-Phe-Leu-PyrS-3Thi-BztA-Gln-NH2]
> 20000	264	CC(=O)N1CCC[C@]12CC=CCCCC1(CCCC=CCOC(=O)N3CC(C(=O)N[C@@H](Cc4ccsc4)C(=O)N[C@@H](Cc4csc5ccccc45)C(=O)N[C@@H](CCC(N)=O)C(N)=O)(C3)NC(=O)[C@H](CC(C)C)NC(=O)[C@H](Cc3ccccc3)NC(=O)[C@H](C)NC(=O)[C@H](C)NC(=O)[C@H](CC(=O)O)NC(=O)[C@H](CC(=O)O)NC1=O)NC(=O)[C@H](CC(C)(C)C)NC(=O)[C@H](CC(=O)O)NC2=O (stereo partly drawn) [I-1828, Ac-PL3-Asp-Npg-B5-Asp-Asp-Ala-Ala-Phe-Leu-Az-3Thi-BztA-Gln-NH2]

Structure (SMILES)	IC50 [1] [nM]	IC50 [2] [nM]
CC(=O)N1CCC[C@]12CC=CCCCC1(CCCC=CCCCOC(=O)N3CC[C@@](C(=O)N[C@@H](Cc4ccsc4)C(=O)N[C@@H](Cc4csc5ccccc45)C(=O)N[C@@H](CCC(=O)N4CC[C@@H](N(C)C)C4)C(N)=O)(C3)NC(=O)[C@H](CC(C)C)NC(=O)[C@H](Cc3ccccc3)NC(=O)[C@H](C)NC(=O)[C@H](C)NC(=O)[C@H](CN(CC(=O)O)CC(F)(F)F)NC(=O)[C@H](CC(=O)O)NC1=O)NC(=O)[C@H](CC(C)(C)C)NC(=O)[C@H](CC(=O)O)NC2=O (stereo partly drawn) [I-1804, Ac-PL3-Asp-Npg-B5-Asp-TfeGA-Ala-Ala-Phe-Leu-PyrS2-3Thi-BztA-[RDMAPyr]GlnR-NH2]	9400	8
CC(=O)N1CCC[C@]12CC=CCCCC1(CCCC=CCCCOC(=O)N3CC[C@@](C(=O)N[C@@H](Cc4ccsc4)C(=O)N[C@@H](Cc4csc5ccccc45)C(=O)N[C@@H](CCC(=O)N4CC[C@@H](N(C)C)C4)C(N)=O)(C3)NC(=O)[C@H](CC(C)C)NC(=O)[C@H](Cc3ccccc3)NC(=O)[C@H](C)NC(=O)[C@H](C)NC(=O)[C@H](CN(CC(=O)O)CC(F)(F)F)NC(=O)[C@H](CC(=O)O)NC1=O)NC(=O)[C@H](CC(C)(C)C)NC(=O)[C@H](CC(=O)O)NC2=O (stereo partly drawn) [I-1805, Ac-PL3-Asp-Npg-B5-Asp-TfeGA-Ala-Ala-Phe-Leu-PyrS2-3Thi-BztA-[RDMAPyr]GlnR-NH2]	9300	6
